Measurements published in patent US5665779A, “Pharmaceutical composition for inhibiting the infection with AIDS virus” (Zaidan, Hojin, Biseibutsu, Kagaku, Kenkyu, Kai, priority 1991, dated 1997).
≈ marks a conversion by molar mass, not a printed value. Like-named read-outs stand apart in the source and are kept apart here.

Assays:
[1] = colorless powder; reported earlier; cited from earlier work
[2] = Hygroscopicity; type: physicochemical; conditions: colorless powdery substance, Referential Example 1
[3] = test system: MT-4 cells; assay: Cytotoxicity to MT-4 cells in the absence of HIV; type: cell-based, human; conditions: even at a concentration of 100 μg/ml
Experimental: Furthermore, cytotoxicity of D-β-lysylmethanediamine to the MT-4 cells was estimated. This was done by incubating the MT-4 cells at varying concentrations of D-β-lysylmethanediamine added and in the absence of HIV but in the same manner of incubation and under the same conditions of incubation of MT-4 cells as those employed in the above-mentioned test procedures of assaying the activity of D-β-lysylmethanediamine to inhibit the infection of T-cells with HIV. That the cytotoxicity was not observed is represented by the symbol "-" in Table 1 below.

[4] = test system: HIV (HTLV-IIIB strain) in MT-4 cells (human T-cell line); assay: Inhibition of infection of human T-cells (MT-4) with HIV, HIV antigen-positive cells by indirect immunofluorescence; type: cell-based; conditions: for EC50: MT-4 cells, read-out: 50% Effective concentration (ED50) against HIV
Experimental: Effects of D-β-lysylmethanediamine inhibitory to infection of human T-cells with HIV were examined in a similar manner to the assay methods described in the "Proc. Natl. Acad, Sci. USA," 80, 6061-6065 (1983); "J. Antibiot.", 40, 1077-1078, (1987); "J. Antibiot.", 42, 344-346 (1989) and "J. Antibiot." 44, 1228-1236 (1991).
1×10^5 Cells/ml of MT-4 cells (human T-cell line) in phosphate buffered saline were seeded into Costar 48-well plates in an amount of 0.5 ml/well. Each well was added with 0.05 ml of a solution of the test compound, namely D-β-lysylmethanediamine (dissolved at different concentrations of 3, 10, 30 and 100 μg per ml in phosphate buffered saline). After incubation for 2 hours at 37° C. under 5% CO2, the MT-4 cells were infected with 0.05 ml of HIV (HTLV-IIIB strain) as added in an amount of multiplicity of infection (m.o.i) of 0.025 to 0.05 in each well. The plates were incubated for 4 days at 37° C. under 5% CO2 so that the T-cells were treated in the presence of the test compound at the different concentrations.
Portions of the incubated cultures were taken and the MT-4 cells were smeared onto slide glasses, dried and fixed with acetone. The presence of the HIV antigen-positive MT-4 cells was detected by the indirect immunofluoroescent assay [Y. Hinuma et al., "Proc. Natl. Acad. Sci. USA," 78, 6476-6480, (1981) and Y. Takeuchi et al., "Gann.", 78, 11-15 (1987)]. To this end, the cell smears, that is, the acetone-fixed cell smears were treated at 37° C. for 30 minutes with such serum of AIDS patient at a dilution of 1:10 in phosphate buffered saline, which was employed as the first antibody. After washing subsequently with phosphate buffered saline, the MT-4 cells were treated at 37° C. for 30 minutes with fluorescent isothiocyanate-conjugated rabbit anti-human IgG serum (Cappel Laboratories, Cocharanville, Pa., USA), which was employed as the second antibody. After the cell smears were then washed with phosphate buffered saline and covered with a cover glass, the MT-4 cells were examined under a fluorescence microscope. Percentages of the number of the viral antigen-positive MT-4 cells (namely, immunofluorescent cells where the HIV-associated antigens were present and expressed) in total cells were calculated.
For the control tests of estimating the number of the total cells under test, the above test procedures were repeated without addition of D-β-lysylmethanediamine.
In order to evaluate the activity of D-β-lysylmethanediamine to inhibit the infection of human T-cells, namely the MT-4 cells with HIV, calculation was made of the percentages (T/C, %) of the number (T) of the HIV antigen-positive cells as measured in the above-mentioned tests where the incubation of MT-4 cells was effected in the presence of the test compound, against the number (C) of the HIV antigen-positive cells as measured in the above-mentioned control tests where the incubation of MT-4 cells was effected without the addition of the test compound. The results of such calculation of the T/C values (%) are shown in Table 1 in term of rate (%) of presence or occurrence of the HIV antigen-positive cells.

[5] = Acute toxicity in mice, intravenous; conditions: mouse, in vivo, read-out: Dosage tolerated without death (acute toxicity)
Experimental: D-β-Lysylmethanediamine used according to this invention is characterised by its low toxicity to mammalian animals. For instance, in the tests of estimating acute toxicity of this compound where mice were intravenously administered with D-β-lysylmethanediamine, the mice having received administration of D-β-lysylmethanediamine could tolerate a dosage of 250 mg/kg of D-β-lysylmethanediamine without involving their death.

[6] = biological target: T1, reverse transcriptase of HIV (HIV-1 M:B_HXB2R, UniProt P04585); assay: Activity inhibitory to reverse transcriptase of HIV; type: biochemical; conditions: 100 μg/ml
T1 construct: preparation not described
Text: Thus, it is apparent that D-β-lysylmethanediamine can inhibit strongly the infection of human T-cells with HIV by any mechanism yet unknown.

[7] = Extractability with organic solvents; type: physicochemical; conditions: from liquid portion of the culture
[8] = Solubility in water; type: physicochemical; conditions: in words
[9] = test system: Gram-positive bacteria; conditions: J. Antibiotics 39(3), 476 (1986); Kokai Sho-62-114947; cited from earlier work
[10] = biological target: T2, protease of HIV (HIV-1 M:B_HXB2R, UniProt P04585); assay: Activity inhibitory to protease of HIV; type: biochemical; conditions: 100 μg/ml
T2 construct: preparation not described

[11] = Human immunodeficiency virus 1, IIIB, MT4, 96 h

NCCC[C@@H](N)CC(=O)NCN [D-β-lysylmethanediamine hemicarbonate]
Hygroscopicity [1]: hygroscopic | Hygroscopicity [2]: hygroscopic

NCCC[C@@H](N)CC(=O)NCN [D-β-lysylmethanediamine]
Cytotoxicity (in words) [3]: no cytotoxicity | activity at 3 µg/mL ([4]; Human immunodeficiency virus 1, IIIB, MT4, 96 h, 3 μg/ml, T/C % vs control without test compound, 4 days, 37° C., read-out: Rate (%) of presence of HIV antigen-positive cells): 30% | activity at 10 µg/mL ([4]; Human immunodeficiency virus 1, IIIB, MT4, 96 h, 10 μg/ml, T/C % vs control without test compound, 4 days, 37° C., read-out: Rate (%) of presence of HIV antigen-positive cells): 15% | activity at 30 µg/mL ([4]; Human immunodeficiency virus 1, IIIB, MT4, 96 h, 30 μg/ml, T/C % vs control without test compound, 4 days, 37° C., read-out: Rate (%) of presence of HIV antigen-positive cells): 10% | activity at 100 µg/mL ([4]; Human immunodeficiency virus 1, IIIB, MT4, 96 h, 100 μg/ml, T/C % vs control without test compound, 4 days, 37° C., read-out: Rate (%) of presence of HIV antigen-positive cells): 5% | EC50 [4, 11]: 0.62 µg/mL (≈ 3.56 µM) | Reduction of the number of HIV antigen-positive cells (in words) ([4]; concentrations of no more than 100 μg/ml): reduce significantly | MTD [5]: ≥ 250 mg/kg | Activity inhibitory to reverse transcriptase of HIV [6]: neither any activity inhibitory to reverse transcriptase of HIV | Extraction with butanol, butyl acetate, chloroform and other organic solvents [7]: substantially connot be extracted | Solubility in water [8]: well soluble in water | Antibacterial activity against Gram-positive bacteria [9]: weak antibacterial activity | Activity inhibitory to protease of HIV [10]: nor any activity inhibitory to protease of HIV

OC[C@@H]1CC[C@H](n2cnc3c(O)ncnc32)O1 [DDI, 2',3'-dideoxyinosine, reference compound]
EC50 [4, 11]: 0.46 µg/mL (≈ 1.95 µM) | Effect of inhibiting the infection of human T-cells with HIV compared with D-β-lysylmethanediamine (in words) ([4]; relative to D-β-lysylmethanediamine, from ED50): to the same extent
